Reference: patent publication US6087355A, “Cephalosporin antibiotics” (Microcide Pharmaceuticals, Inc., priority 1996, dated 2000)
Counter-ions that a name gives are not always drawn. Like-named read-outs stand apart in the source and are kept apart here.

Tests used:
[1] = tested on: S. aureus ATCC 13709(Meth^S); assay: In vitro MIC, agar dilution; type: cell-based; conditions: Staphylococcus aureus, ATCC13709, S. aureus ATCC 13709(Meth^S); read-out: minimum inhibitory concentration (MIC)
Procedure: (§1) The compounds of the invention were evaluated against several β-lactamresistant (for example methicillin-resistant, vancomycin resistant, and/or ampicillin-resistant) bacteria strains by determining the minimum inhibitory concentration (MIC, μg/ml) of each compound with respect to each strain. The MIC, the lowest concentration of antibiotic which inhibits growth of the test organism, was determined by the agar dilution method.
(§2) To determine the MIC for bacterial isolates, the test compound was incorporated in a series of two-fold dilutions into liquified Mueller-Hinton agar. Upon solidification, a number of different bacterial strains were spot inoculated with a replicating device onto the agar surface.
(§3) Aliquots of antimicrobial agents were prepared in phosphate buffered saline (PBS) at pH 7.2. Tween 20 or DMSO was used as a solubilizing vehicle as needed. Standard methods of vortexing, sonicating and gentle heat were used to facilitate solubilizing the test agent. […] A 1.28 mg/mL stock solution was used with a subsequent highest working concentration of 128 μg/mL. Serial two-fold dilutions were done through ≤0.25 μg/mL. Each drug level was tested in duplicate. Two-fold drug dilutions were done in sterile 50 mL tubes with a final drug volume of 5 mL. Upon the addition of 45 mL of molten agar, a 10-fold dilution resulted. Two, 25 mL. plates were then poured into 15×150 mm square Petri plates with grids and allowed to harden.
(§4) A control plate with a reference drug, either cefotaxime, vancomycin or imipenem, was used as the positive growth control. Stock concentrations of reference antibiotics were prepared and frozen at -80° C. […] All test plates were used within 24 hours of preparation.
(§5) Satisfactory results were obtained where the inoculum contained about 10^4 colony forming units (cfu)±0.5 logs. Starting with pure cultures of the test isolates on agar plates, a few isolated colonies were transferred to a tube of nutrient broth and allowed to grow 4-6 hours at 35-36° C. to reach log-phase growth. Dropwise addition of the broth culture to PBS was done to match a 0.5 McFarland turbidity standard equal to 10^8 cfu/mL. This was further diluted ten-fold in PBS to reach a working inoculum concentration of 10^7 cfu/mL. When 1 μL of the working inoculum was applied to the agar surface a concentration of about 10^4 cfu per spot was obtained.
(§6) Disposable sterile 1 μL loops were used to inoculate test plates, with each isolate in a designated grid on the agar plate. An alternate method of inoculation involved the use of a replica plater, a device with 48 steel pins allowing the simultaneous inoculation of multiple isolates. After the spots had dried, the plates were incubated at 35-36° C. for 16-20 hours. Endpoints were assessed as the minimum inhibitory concentration (MIC) of antimicrobial agent.

E. faecalis VanB(Van^R) = assay: In vitro MIC, agar dilution; type: cell-based; conditions: Enterococcus faecalis, read-out: minimum inhibitory concentration (MIC)
Procedure: as §1, §2, §3, §4, §5, §6

E. coli ATCC 25992 = assay: In vitro MIC, agar dilution; type: cell-based; conditions: Escherichia coli, ATCC25992, read-out: minimum inhibitory concentration (MIC)
Procedure: as §1, §2, §3, §4, §5, §6

E. faecium VanA(Van^R) = assay: In vitro MIC, agar dilution; type: cell-based; conditions: Enterococcus faecium, read-out: minimum inhibitory concentration (MIC)
Procedure: as §1, §2, §3, §4, §5, §6

[2] = tested on: S. aureus Spain #356(Meth^R); assay: In vitro MIC, agar dilution; type: cell-based; conditions: Staphylococcus aureus, read-out: minimum inhibitory concentration (MIC)
Procedure: as §1, §2, §3, §4, §5, §6

[3] = tested on: S. aureus ATCC 33593(Meth^R); assay: In vitro MIC, agar dilution; type: cell-based; conditions: Staphylococcus aureus, ATCC33593, read-out: minimum inhibitory concentration (MIC)
Procedure: as §1, §2, §3, §4, §5, §6

S. aureus ATCC 29213 = assay: In vitro MIC, agar dilution; type: cell-based; conditions: Staphylococcus aureus, ATCC29213, read-out: minimum inhibitory concentration (MIC)
Procedure: as §1, §2, §3, §4, §5, §6

E. faecalis ATCC 29212 = assay: In vitro MIC, agar dilution; type: cell-based; conditions: Enterococcus faecalis, ATCC29212, read-out: minimum inhibitory concentration (MIC)
Procedure: as §1, §2, §3, §4, §5, §6

[4] = tested on: S. aureus 76(Meth^R)(lac^+); assay: In vitro MIC, agar dilution; type: cell-based; conditions: Staphylococcus aureus, read-out: minimum inhibitory concentration (MIC)
Procedure: as §1, §2, §3, §4, §5, §6

[5] = tested on: S. aureus PC1(Meth^S)(lac^+); assay: In vitro MIC, agar dilution; type: cell-based; conditions: Staphylococcus aureus, read-out: minimum inhibitory concentration (MIC)
Procedure: as §1, §2, §3, §4, §5, §6

P. aeruginosa ATCC 27853 = assay: In vitro MIC, agar dilution; type: cell-based; conditions: Pseudomonas aeruginosa, ATCC27853, read-out: minimum inhibitory concentration (MIC)
Procedure: as §1, §2, §3, §4, §5, §6

E. faecium ATCC 35667 = assay: In vitro MIC, agar dilution; type: cell-based; conditions: Enterococcus faecium, ATCC35667, read-out: minimum inhibitory concentration (MIC)
Procedure: as §1, §2, §3, §4, §5, §6

[6] = tested on: S. haemolyticus 05(Meth^R); assay: In vitro MIC, agar dilution; type: cell-based; conditions: Staphylococcus haemolyticus, read-out: minimum inhibitory concentration (MIC)
Procedure: as §1, §2, §3, §4, §5, §6

E. faecium A491(Amp^R) = assay: In vitro MIC, agar dilution; type: cell-based; conditions: Enterococcus faecium, read-out: minimum inhibitory concentration (MIC)
Procedure: as §1, §2, §3, §4, §5, §6

[7] = tested on: S. aureus strain ATCC 13709 (methicillin-susceptible); assay: Murine model for lethal bacteremic peritonitis; type: in vivo, female Swiss-Webster mice; conditions: Staphylococcus aureus, 72 h
Procedure: Groups of 5 female Swiss-Webster mice (Simonsen, Gilroy, Calif.) each are challenged by the intraperitoneal (IP) route with tenfold increments of a bacterial inoculum. This permits calculation of the mean lethal dose (LD50) and the LD100. For preliminary evaluation of a new antibiotic, mice are challenged IP with an LD100 titer of bacteria. In two equal doses administered at the time of bacterial challenge and 2 hours later, groups of 10 mice each are treated subcutaneously with two-fold increments of the test drug and an antibiotic of known efficacy in mice and humans (i.e., positive control). Mice are observed for 72 h. Those alive at 72 h are considered long term survivors. The total drug dose in mg/kg that protects 50% of mice in a group from death is termed the mean protective dose (PD50). PD50 s are similarly determined for several pathogens. The quantitative endpoints for the new drug are then compared with those obtained with reference antibiotics.
Six ten-fold dilutions of inoculum suspended in 0.5 mL of sterilized 7% hog gastric mucin (Sigma) are injected IP in groups of 5 mice each. A control group of 5 mice receive mucin alone. Mice are observed for 72 h. Those alive at 72 h are considered long term survivors. The mean lethal dose (LD50) and 100% lethal dose (LD100) are determined by the probit test.
For antibiotic efficacy studies, mice are challenged IP with bacterial titers that will afford an LD100 for the test strain. In two equal doses administered at the time of bacterial challenge and 2 hours later, groups of 10 mice each are treated by the subcutaneous route (SC) with twofold increments of the test antibiotic; another group is treated similarly with a reference antibiotic of known efficacy in animals and man. Drug doses can range from 0.01 to 512 mg/kg. If the drug is poorly soluble, Tween 20 or propylene glycol will be employed to solubilize the drug. Animals are observed for 72 h. The 50% protective dose (PD50) is calculated in mg/kg by the probit method. The PD50 is the same as the 50% effective dose (ED50) and the 50% curative dose (CD50). Samples of blood from the hearts of all animals that die and from half the mice that survive are cultured on brain-heart infusion agar. Animals that received a protective dosage of the test drug will be alive at 72 h, although they may appear moderately ill to very ill during the observation period. […] Most of these mice will die within 6 to 48 h. Those alive at 72 h will be considered long term survivors.
(Compound numbers correspond to those in MIC tables; data reported for challenge with methicillin-susceptible S. aureus strain ATCC 13709.)

[8] = tested on: S. aureus Col(Meth^R)(lac^-); assay: In vitro MIC, agar dilution; type: cell-based; conditions: Staphylococcus aureus, read-out: minimum inhibitory concentration (MIC)
Procedure: as §1, §2, §3, §4, §5, §6
The S. aureus Col strain is a high-level PBP2a producer, whereas S. aureus Col 8A, its isogenic partner, lacks PBP2a.

[9] = ATCC13709, sc, read-out: Survivors

For `CNCC(=O)NCCSCc1cnccc1SC1=C(C(=O)O)N2C(=O)[C@@H](NC(=O)/C(=N\O)c3csc(N)n3)[C@H]2SC1` [Cmpd 18, (7R)-7-[(Z)-2-(aminothiazol-4-yl)-2-(hydroxyimino)acetamido]-3-[3-(N-methylglycyl)aminoethylthiomethylpyrid-4-ylthio]-3-cephem-4-carboxylate, trifluoroacetic acid salt], the MIC [1] was 1 µg/mL, the MIC (E. faecalis VanB(Van^R)) was 0.5 µg/mL and the MIC (E. coli ATCC 25992) was 8 µg/mL. The MIC (E. faecium VanA(Van^R)) was 2 µg/mL, the MIC [2] was 8 µg/mL and the MIC [3] was 4 µg/mL. The MIC (S. aureus ATCC 29213) was 1 µg/mL, the MIC (E. faecalis ATCC 29212) was 0.25 µg/mL and the MIC [4] was 8 µg/mL. For the same molecule, the MIC [5] was 1 µg/mL, the MIC (P. aeruginosa ATCC 27853) was greater than 32 µg/mL and the MIC (E. faecium ATCC 35667) was 2 µg/mL. For the same molecule, the MIC [6] was 8 µg/mL, the MIC (E. faecium A491(Amp^R)) was greater than 32 µg/mL and the responders at 0.3125 mg/kg ([7]; ATCC13709, Dose 0.3125 mg/kg, SC, read-out: Survivors) was 30%. It also gave a responders at 0.625 mg/kg ([7]; ATCC13709, Dose 0.625 mg/kg, SC, read-out: Survivors) of 20%, a responders at 1.25 mg/kg ([7]; ATCC13709, Dose 1.25 mg/kg, SC, read-out: Survivors (converted)) of 20% and a responders at 2.5 mg/kg ([7]; ATCC13709, Dose 2.5 mg/kg, SC, read-out: Survivors) of 20%. For the same molecule, the responders at 5 mg/kg ([7]; ATCC13709, Dose 5 mg/kg, SC, read-out: Survivors) was 60% and the ED50 ([7]; ATCC13709, SC, two equal doses, IP challenge, read-out: ED50) was 4.44 mg/kg.
For `CC(C)(CN)SCc1cnccc1SC1=C(C(=O)O)N2C(=O)[C@@H](NC(=O)/C(=N\O)c3csc(N)n3)[C@H]2SC1` [Cmpd 19, (7R)-7-[(Z)-2-(aminothiazol-4-yl)-2-(hydroxyimino)acetamido]-3-[3-(2-amino-1,1-dimethylethylthiomethyl)pyrid-4-ylthio]-3-cephem-4-carboxylate, trifluoroacetic acid salt], the MIC [1] was 0.5 µg/mL, the MIC (E. faecalis VanB(Van^R)) was 0.5 µg/mL and the MIC (E. coli ATCC 25992) was 8 µg/mL. It also gave an MIC (E. faecium VanA(Van^R)) of 2 µg/mL, an MIC [2] of 8 µg/mL and an MIC [3] of 8 µg/mL. The MIC (S. aureus ATCC 29213) was 0.5 µg/mL, the MIC (E. faecalis ATCC 29212) was 1 µg/mL and the MIC [4] was 8 µg/mL. It also gave an MIC [5] of 0.5 µg/mL, an MIC (P. aeruginosa ATCC 27853) greater than 32 µg/mL and an MIC (E. faecium ATCC 35667) of 1 µg/mL. The MIC [6] was 16 µg/mL, the MIC (E. faecium A491(Amp^R)) was greater than 32 µg/mL and the MIC [8] was 8 µg/mL.
For `CN[C@H](CC(C)C)C(=O)N[C@H]1C(=O)N[C@@H](CC(N)=O)C(=O)N[C@H]2C(=O)N[C@H]3C(=O)N[C@H](C(=O)N[C@H](C(=O)O)c4cc(O)cc(O)c4-c4cc3ccc4O)[C@H](O)c3ccc(c(Cl)c3)Oc3cc2cc(c3O[C@@H]2O[C@H](CO)[C@@H](O)[C@H](O)[C@H]2O[C@H]2C[C@](C)(N)[C@H](O)[C@H](C)O2)Oc2ccc(cc2Cl)[C@H]1O` [Vancomycin, vancomycin, reference compound], the ED50 ([7]; ATCC13709, sc) was 1.94 mg/kg, the responders at 0.625 mg/kg [7, 9] was 20% and the responders at 1.25 mg/kg [7, 9] was 20%. For the same molecule, the responders at 2.5 mg/kg [7, 9] was 40%, the responders at 5 mg/kg [7, 9] was 100% and the responders at 10 mg/kg [7, 9] was 100%.
